According to ChEMBL document CHEMBL1201862, “PubChem BioAssay data set” (2004):
Active and inactive are the calls of the source.

Assays:
[1] = target: T1, High affinity choline transporter 1 (Homo sapiens, UniProt Q9GZV3); assay: CHT inhibitors, dose response, cell-based, 5-point CRC, membrane potential dye (AID 504840); format: functional
T1 sequence (Q9GZV3 whole entry): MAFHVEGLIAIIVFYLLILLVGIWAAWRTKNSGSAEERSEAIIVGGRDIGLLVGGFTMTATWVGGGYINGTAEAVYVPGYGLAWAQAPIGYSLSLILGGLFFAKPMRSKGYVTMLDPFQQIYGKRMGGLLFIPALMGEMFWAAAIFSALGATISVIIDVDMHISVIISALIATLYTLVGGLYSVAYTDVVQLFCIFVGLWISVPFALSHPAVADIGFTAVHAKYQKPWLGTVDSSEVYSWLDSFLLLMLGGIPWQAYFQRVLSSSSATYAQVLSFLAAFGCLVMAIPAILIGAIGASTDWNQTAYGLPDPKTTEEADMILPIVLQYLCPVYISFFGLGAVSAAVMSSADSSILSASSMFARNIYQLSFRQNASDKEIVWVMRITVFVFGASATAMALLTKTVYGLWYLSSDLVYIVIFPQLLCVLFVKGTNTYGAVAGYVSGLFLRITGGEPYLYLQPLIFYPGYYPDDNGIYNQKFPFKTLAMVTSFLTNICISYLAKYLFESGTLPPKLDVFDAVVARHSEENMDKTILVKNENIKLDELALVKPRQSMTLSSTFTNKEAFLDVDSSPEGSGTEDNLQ

[2] = target: T2, Nuclear receptor subfamily 0 group B member 1 (Homo sapiens, UniProt P51843); assay: Luminescence-based cell-based high throughput dose response assay for inhibitors of the orphan nuclear receptor subfamily 0, group B, member 1 (DAX1; NR0B1). [Related pubchem assays (depositor defined):AID504766, AID504790]; format: functional
T2 sequence (P51843 whole entry): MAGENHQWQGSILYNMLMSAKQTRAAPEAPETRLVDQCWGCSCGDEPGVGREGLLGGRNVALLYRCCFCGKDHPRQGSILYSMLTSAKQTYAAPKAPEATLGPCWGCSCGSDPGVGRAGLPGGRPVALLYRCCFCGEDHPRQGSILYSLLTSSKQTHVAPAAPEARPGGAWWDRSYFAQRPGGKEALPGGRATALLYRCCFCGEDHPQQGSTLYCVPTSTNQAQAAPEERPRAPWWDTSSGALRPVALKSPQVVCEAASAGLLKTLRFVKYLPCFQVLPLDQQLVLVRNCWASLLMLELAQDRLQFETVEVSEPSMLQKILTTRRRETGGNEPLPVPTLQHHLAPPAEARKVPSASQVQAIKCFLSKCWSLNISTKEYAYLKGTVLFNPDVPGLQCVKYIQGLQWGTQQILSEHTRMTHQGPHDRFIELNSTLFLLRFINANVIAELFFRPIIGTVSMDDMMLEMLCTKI

HEK293 [3] = assay: cells; format: functional, cell-based; details: Homo sapiens
HEK293 [4] = assay: cells; format: functional, cell-based; details: Homo sapiens; remark: listed apart in the source
HEK293 [5] = assay: cells; format: functional, cell-based; details: Homo sapiens; remark: listed apart in the source
HEK293 [6] = assay: NOD1 signaling inhibitors, primary screen, cell-based, luminescence, uHTS (AID 1578); format: functional; details: Homo sapiens
HEK293 [7] = assay: NOD2 signaling inhibitors in MDP-stimulated cells, cell-based, uHTS, luminescence (AID 2001); format: functional; details: Homo sapiens
SUMO-activating enzyme [8] = target: T3, SUMO-activating enzyme (Homo sapiens, UniProt Q9UBT2); assay: SUMOylation inhibitor hit validation, confirmation, SUMOylation inhibitor project, biochemical, AlphaScreen (AID 2018); format: functional
Aminopeptidase N = target: T4, Aminopeptidase N (Plasmodium falciparum FcB1/Columbia, UniProt O96935); assay: P. falciparum M1AAP inhibitors, biochemical, fluorogenic H-Leu-NHMec substrate, 1536-well (AID 1445); parameters: species or system Plasmodium falciparum 3D7, 3D7
T4 sequence (O96935 whole entry): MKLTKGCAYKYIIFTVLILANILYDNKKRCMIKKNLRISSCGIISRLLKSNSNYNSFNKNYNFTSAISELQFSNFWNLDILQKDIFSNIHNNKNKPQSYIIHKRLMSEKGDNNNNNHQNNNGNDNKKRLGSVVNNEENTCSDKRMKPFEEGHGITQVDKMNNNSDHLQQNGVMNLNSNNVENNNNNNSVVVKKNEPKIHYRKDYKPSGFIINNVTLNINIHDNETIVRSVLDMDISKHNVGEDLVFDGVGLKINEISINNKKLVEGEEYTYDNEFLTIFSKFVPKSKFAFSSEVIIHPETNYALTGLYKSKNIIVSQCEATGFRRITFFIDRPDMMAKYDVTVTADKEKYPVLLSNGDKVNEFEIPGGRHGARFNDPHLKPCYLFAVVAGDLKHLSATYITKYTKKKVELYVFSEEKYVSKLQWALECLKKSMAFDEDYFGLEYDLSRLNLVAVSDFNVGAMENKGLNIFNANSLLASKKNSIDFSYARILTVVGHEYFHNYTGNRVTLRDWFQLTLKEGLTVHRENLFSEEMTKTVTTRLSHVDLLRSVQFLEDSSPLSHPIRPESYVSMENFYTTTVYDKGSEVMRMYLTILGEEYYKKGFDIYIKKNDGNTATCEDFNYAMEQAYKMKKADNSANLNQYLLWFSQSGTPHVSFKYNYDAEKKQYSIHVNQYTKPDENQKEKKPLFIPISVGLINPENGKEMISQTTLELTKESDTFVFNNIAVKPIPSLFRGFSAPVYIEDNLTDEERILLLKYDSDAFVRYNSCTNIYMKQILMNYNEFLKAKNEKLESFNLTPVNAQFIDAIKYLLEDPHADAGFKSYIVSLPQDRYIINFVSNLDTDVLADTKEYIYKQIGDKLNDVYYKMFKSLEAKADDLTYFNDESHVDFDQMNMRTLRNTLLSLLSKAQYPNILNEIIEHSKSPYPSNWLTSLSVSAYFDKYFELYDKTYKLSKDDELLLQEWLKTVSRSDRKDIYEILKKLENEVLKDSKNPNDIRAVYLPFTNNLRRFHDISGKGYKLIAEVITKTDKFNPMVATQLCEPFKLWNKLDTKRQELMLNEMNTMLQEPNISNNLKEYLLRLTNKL

SUMO-activating enzyme [9] = target: T3, SUMO-activating enzyme; assay: inhibitors of in vitro SUMOylation cascade, primary screen, biochemical, HTRF, uHTS (AID 2006); format: protein-complex assay
Phospholipase A2 = Phospholipase A2 (Homo sapiens, UniProt P04054); format: functional;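 note: confirmatory dose-response counterscreen on phospholipase A2, testing hits that came from an ultra-high-throughput screen for ATG4B inhibitors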
Cysteine protease ATG4B = target: T5, Cysteine protease ATG4B (Homo sapiens, UniProt Q9Y4P1); format: functional;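 note: Fluorescence-based dose-response confirmation assay measuring inhibition of ATG4B activity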
T5 sequence (Q9Y4P1 whole entry): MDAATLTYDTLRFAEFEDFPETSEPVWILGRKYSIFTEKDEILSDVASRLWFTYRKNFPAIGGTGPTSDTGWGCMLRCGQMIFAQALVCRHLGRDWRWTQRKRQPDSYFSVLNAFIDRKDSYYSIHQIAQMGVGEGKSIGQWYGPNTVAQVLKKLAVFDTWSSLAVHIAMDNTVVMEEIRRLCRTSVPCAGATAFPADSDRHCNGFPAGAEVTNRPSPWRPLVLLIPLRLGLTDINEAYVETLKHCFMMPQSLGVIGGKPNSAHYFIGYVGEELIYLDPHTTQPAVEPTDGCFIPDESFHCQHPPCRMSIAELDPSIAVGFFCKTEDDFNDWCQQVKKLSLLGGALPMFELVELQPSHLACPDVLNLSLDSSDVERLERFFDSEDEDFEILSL

[10] = C. albicans growth with fluconazole, confirmation, fluorescence, retest (AID 2467); format: functional, cell-based
Vero = assay: cells; format: functional; details: Chlorocebus sabaeus
[11] = THP-1 cell cytotoxicity, dose response, cytotoxicity control for non-replicating M. tuberculosis project (AID 489025); format: functional
[12] = Luminescence Cell-Based Dose Confirmation HTS to Identify Activators of 5'UTR Stem-Loop Driven Alpha-Synuclein mRNA Translation in H4 Neuroglioblastoma Cells. [Related pubchem assays: 1829 (Project Summary), 1814 (Primary HTS)]; format: functional
H4 = assay: Luminescence Cell-Based Dose Response HTS to Identify Activators of 5'UTR Stem-Loop Driven Prion Protein mRNA Translation in H4 Neuroglioblastoma Cells. [Related pubchem assays: 1829 (Project Summary), 1814 (Primary HTS)]; format: functional; details: Homo sapiens
[13] = Luminescence Cell-Based Dose Response HTS to Identify Activators of Luciferase Translation or Activity in H4 […] Cells. [Related pubchem assays: 1829 (Project Summary), 1814 (Primary HTS)]; format: functional
[14] = HepG2 cell cytotoxicity, dose response, cytotoxicity control for non-replicating M. tuberculosis project (AID 489018); format: functional; details: Mycobacterium tuberculosis
[15] = Vero E6 cell cytotoxicity, dose response, cytotoxicity control for non-replicating M. tuberculosis project, secondary assay (AID 492998); format: functional, VeroE6; details: Vero C1008
[16] = NIH-3T3 fibroblast cytotoxicity, dose response, cytotoxicity control, cell-based, fluorescence, Alamar Blue, secondary assay (AID 2327); format: functional;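 note: NIH-3T3 mouse fibroblasts cultured with fluconazole at 8 µg/mL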
cells = format: functional

T3 sequence (Q9UBE0 whole entry): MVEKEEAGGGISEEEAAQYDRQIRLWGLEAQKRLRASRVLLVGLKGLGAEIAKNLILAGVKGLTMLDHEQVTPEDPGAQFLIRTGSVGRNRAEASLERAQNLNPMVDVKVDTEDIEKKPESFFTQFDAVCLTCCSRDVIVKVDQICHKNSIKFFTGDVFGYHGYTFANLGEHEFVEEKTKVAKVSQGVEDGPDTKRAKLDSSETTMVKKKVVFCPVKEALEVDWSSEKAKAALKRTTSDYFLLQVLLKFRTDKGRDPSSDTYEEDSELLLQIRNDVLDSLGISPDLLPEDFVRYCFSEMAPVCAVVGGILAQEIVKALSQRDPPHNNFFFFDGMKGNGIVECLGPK
T3 sequence (Q9UBT2 whole entry): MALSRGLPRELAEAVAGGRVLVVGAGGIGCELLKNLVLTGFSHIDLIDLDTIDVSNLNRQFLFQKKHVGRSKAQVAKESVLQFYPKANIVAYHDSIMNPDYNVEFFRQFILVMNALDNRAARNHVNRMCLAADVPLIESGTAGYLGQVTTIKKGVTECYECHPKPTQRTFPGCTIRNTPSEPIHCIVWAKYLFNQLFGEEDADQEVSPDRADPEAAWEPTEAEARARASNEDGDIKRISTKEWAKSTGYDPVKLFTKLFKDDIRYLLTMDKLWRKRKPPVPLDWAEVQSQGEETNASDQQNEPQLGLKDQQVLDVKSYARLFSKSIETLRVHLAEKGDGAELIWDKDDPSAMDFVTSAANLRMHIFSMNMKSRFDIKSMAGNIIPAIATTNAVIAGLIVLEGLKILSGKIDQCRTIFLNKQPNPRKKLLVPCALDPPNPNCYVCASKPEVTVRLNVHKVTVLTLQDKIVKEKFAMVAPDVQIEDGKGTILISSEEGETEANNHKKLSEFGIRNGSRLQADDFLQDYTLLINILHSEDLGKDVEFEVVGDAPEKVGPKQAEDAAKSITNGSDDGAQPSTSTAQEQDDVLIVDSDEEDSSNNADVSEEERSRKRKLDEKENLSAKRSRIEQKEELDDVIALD
Phospholipase A2, sequence (P04054 whole entry): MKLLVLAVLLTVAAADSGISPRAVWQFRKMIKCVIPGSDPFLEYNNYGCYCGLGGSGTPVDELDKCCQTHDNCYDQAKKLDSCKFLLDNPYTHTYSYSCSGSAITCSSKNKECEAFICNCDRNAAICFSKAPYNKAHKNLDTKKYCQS

For Cc1nn(-c2ccccc2)nc1C(=O)Nc1nnc(C(F)(F)F)s1, the IC50 [1] was 17.4 µM (active).
For COc1ccc(NC(=O)NNC(=O)CCC(=O)Nc2ccccc2Cl)cc1, the IC50 [2] was > 67.5 µM (inactive) and the IC50 (HEK293 [3]) was > 67.5 µM (inactive).
In the case of COc1cc2ncnc(NCCc3ccccc3)c2cc1OC, the IC50 (HEK293 [4]) is reported as > 20 µM (inactive), the IC50 (HEK293 [5]) is reported as > 20 µM (inactive) and the EC50 (HEK293 [6]) is reported as 19 µM (active). For the same molecule, the IC50 (HEK293 [7]) was 19.3 µM (inactive).
For COc1cccc(-c2nc(SCC(=O)Nc3nc(-c4ccccc4)c(C)s3)[nH]c(=O)c2C#N)c1, the IC50 (SUMO-activating enzyme [8]) was 5.37 µM (active), the IC50 (Aminopeptidase N) was 21.2 µM (active) and the IC50 (SUMO-activating enzyme [9]) was 15.2 µM (active). The IC50 (Phospholipase A2) was 15 µM (active) and the IC50 (Cysteine protease ATG4B) was 14.9 µM (active).
In the case of O=C(NNC(=O)c1ccccc1O)c1ccc(Br)cc1, the IC50 [2] is reported as > 67.5 µM (inactive) and the IC50 (HEK293 [3]) is reported as > 67.5 µM (inactive).
In the case of O=C(Nc1cccc2ccccc12)c1ccc([N+](=O)[O-])o1, the EC50 [10] is reported as 1.51 µM (active), the CC50 (Vero) is reported as 17.8 µM (active) and the CC50 [11] is reported as 12.7 µM (active). For the same molecule, the EC50 [12] was > 120 µM (not active), the EC50 (H4) was > 120 µM (not active) and the EC50 [13] was > 120 µM (not active). The CC50 [14] was 15.1 µM (active), the CC50 [15] was 6.37 µM (active) and the EC50 [16] was > 150 µM (inactive). For the same molecule, the IC50 (cells) was 5.22 µM (active).
